Test results published in ChEMBL document CHEMBL3044712, “Herbicidal potential of pseudoguaninolide sesquiterpenes on wild oat, Avena fatua L” (Biochem Syst Ecol, 2012).

Columns and labels:
Avena fatua [1] = test: Phytotoxicity against Avena fatua assessed as inhibition of shoot growth as shoot length at 2 mM (reference value: 11.2 +/- 0.35%); format: functional; conditions: read-out: GI
Avena fatua [2] = test: Phytotoxicity against Avena fatua assessed as inhibition of shoot growth as shoot length at 1 mM (reference value: 11.2 +/- 0.35%); format: functional; conditions: read-out: GI
Avena fatua [3] = test: Phytotoxicity against Avena fatua assessed as inhibition of shoot growth as shoot length at 0.5 mM (reference value: 11.2 +/- 0.35%); format: functional; conditions: read-out: GI
Avena fatua [4] = test: Phytotoxicity against Avena fatua assessed as inhibition of shoot growth as shoot length at 0.25 mM (reference value: 11.2 +/- 0.35%); format: functional; conditions: read-out: GI
Avena fatua [5] = test: Phytotoxicity against Avena fatua assessed as inhibition of shoot growth as shoot length at 0.125 mM (reference value: 11.2 +/- 0.35%); format: functional; conditions: read-out: GI
Avena fatua [6] = test: Phytotoxicity against Avena fatua assessed as inhibition of root growth as root length; format: functional, organism-based
Avena fatua [7] = test: Phytotoxicity against Avena fatua assessed as inhibition of root growth as root length at 2 mM (reference value: 9.6 +/- 0.36%); format: functional; conditions: read-out: GI
Avena fatua [8] = test: Phytotoxicity against Avena fatua assessed as inhibition of root growth as root length at 1 mM (reference value: 9.6 +/- 0.36%); format: functional; conditions: read-out: GI
Avena fatua [9] = test: Phytotoxicity against Avena fatua assessed as inhibition of root growth as root length at 0.5 mM (reference value: 9.6 +/- 0.36%); format: functional; conditions: read-out: GI
Avena fatua [10] = test: Phytotoxicity against Avena fatua assessed as inhibition of root growth as root length at 0.25 mM measured after 10 days sowing (reference value: 9.6 +/- 0.36%); format: functional; conditions: 240 h, read-out: GI
Avena fatua [11] = test: Phytotoxicity against Avena fatua assessed as inhibition of root growth as root length at 0.125 mM (reference value: 9.6 +/- 0.36%); format: functional; conditions: read-out: GI
Avena fatua [12] = test: Phytotoxicity against Avena fatua assessed as seed germination at 2 mM measured after 10 days sowing (reference value: 50 +/- 2.89%); format: functional
Avena fatua [13] = test: Phytotoxicity against Avena fatua assessed as seed germination at 1 mM measured after 10 days sowing (reference value: 50 +/- 2.89%); format: functional
Avena fatua [14] = test: Phytotoxicity against Avena fatua assessed as seed germination at 0.5 mM measured after 10 days sowing (reference value: 50 +/- 2.89%); format: functional
Avena fatua [15] = test: Phytotoxicity against Avena fatua assessed as seed germination at 0.25 mM measured after 10 days sowing (reference value: 50 +/- 2.89%); format: functional
Avena fatua [16] = test: Phytotoxicity against Avena fatua assessed as seed germination at 0.125 mM measured after 10 days sowing (reference value: 50 +/- 2.89%); format: functional
Avena fatua [17] = test: Phytotoxicity against Avena fatua assessed as inhibition of shoot growth as shoot length; format: functional, organism-based

SMILES: C=C1C(=O)O[C@@H]2[C@H]1CC[C@H](C)[C@@H]1C=CC(=O)[C@@]21C [AMBROSIN]
- inhibition of growth at 2000 µM (Avena fatua [1]): 86.6%
- inhibition of growth at 1000 µM (Avena fatua [2]): 75.9%
- inhibition of growth at 500 µM (Avena fatua [3]): 74.1%
- inhibition of growth at 250 µM (Avena fatua [4]): 51.8%
- inhibition of growth at 125 µM (Avena fatua [5]): 19.6%
- EC50 (Avena fatua [6]): 220 µM
- inhibition of growth at 2000 µM (Avena fatua [7]): 99%
- inhibition of growth at 1000 µM (Avena fatua [8]): 92.4%
- inhibition of growth at 500 µM (Avena fatua [9]): 85.4%
- inhibition of growth at 250 µM (Avena fatua [10]): 57.3%
- inhibition of growth at 125 µM (Avena fatua [11]): 22.9%
- Activity (Avena fatua [12]): 26.7%
- Activity (Avena fatua [13]): 26.7%
- Activity (Avena fatua [14]): 28.3%
- Activity (Avena fatua [15]): 36.7%
- Activity (Avena fatua [16]): 50%
- EC50 (Avena fatua [17]): 300 µM

SMILES: C=C(C(=O)O)[C@@H]1CC[C@H](C)[C@@H]2CCC(=O)[C@@]2(C)C1 [DAMCINIC ACID]
- inhibition of growth at 2000 µM (Avena fatua [1]): 70.5%
- inhibition of growth at 1000 µM (Avena fatua [2]): 44.6%
- inhibition of growth at 500 µM (Avena fatua [3]): 29.5%
- inhibition of growth at 250 µM (Avena fatua [4]): 6.3%
- inhibition of growth at 125 µM (Avena fatua [5]): 3.6%
- EC50 (Avena fatua [6]): 600 µM
- inhibition of growth at 2000 µM (Avena fatua [7]): 79.2%
- inhibition of growth at 1000 µM (Avena fatua [8]): 64.6%
- inhibition of growth at 500 µM (Avena fatua [9]): 50%
- inhibition of growth at 250 µM (Avena fatua [10]): 31.3%
- inhibition of growth at 125 µM (Avena fatua [11]): 4.2%
- Activity (Avena fatua [12]): 28.3%
- Activity (Avena fatua [13]): 38.3%
- Activity (Avena fatua [14]): 38.3%
- Activity (Avena fatua [15]): 40%
- Activity (Avena fatua [16]): 41.7%
- EC50 (Avena fatua [17]): 1090 µM

SMILES: C=C1C(=O)O[C@@H]2[C@H]1CC[C@H](C)[C@@H]1CCC(=O)[C@@]21C [DAMSIN]
- inhibition of growth at 2000 µM (Avena fatua [1]): 83.9%
- inhibition of growth at 1000 µM (Avena fatua [2]): 66.1%
- inhibition of growth at 500 µM (Avena fatua [3]): 22.3%
- inhibition of growth at 250 µM (Avena fatua [4]): 5.4%
- inhibition of growth at 125 µM (Avena fatua [5]): 1.8%
- EC50 (Avena fatua [6]): 240 µM
- inhibition of growth at 2000 µM (Avena fatua [7]): 98.2%
- inhibition of growth at 1000 µM (Avena fatua [8]): 92.4%
- inhibition of growth at 500 µM (Avena fatua [9]): 65.6%
- inhibition of growth at 250 µM (Avena fatua [10]): 55.2%
- inhibition of growth at 125 µM (Avena fatua [11]): 30.2%
- Activity (Avena fatua [12]): 16.7%
- Activity (Avena fatua [13]): 26.7%
- Activity (Avena fatua [14]): 30%
- Activity (Avena fatua [15]): 35%
- Activity (Avena fatua [16]): 46.7%
- EC50 (Avena fatua [17]): 830 µM

SMILES: C=C1C(=O)O[C@@H]2[C@H]1CC[C@H](C)[C@@]1(O)C=CC(=O)[C@@]21C [HYMENIN]
- inhibition of growth at 2000 µM (Avena fatua [1]): 80.4%
- inhibition of growth at 1000 µM (Avena fatua [2]): 60.7%
- inhibition of growth at 500 µM (Avena fatua [3]): 39.3%
- inhibition of growth at 250 µM (Avena fatua [4]): 25%
- inhibition of growth at 125 µM (Avena fatua [5]): 10.7%
- EC50 (Avena fatua [6]): 570 µM
- inhibition of growth at 2000 µM (Avena fatua [7]): 95.6%
- inhibition of growth at 1000 µM (Avena fatua [8]): 72.9%
- inhibition of growth at 500 µM (Avena fatua [9]): 37.5%
- inhibition of growth at 250 µM (Avena fatua [10]): 15.6%
- inhibition of growth at 125 µM (Avena fatua [11]): 8.3%
- Activity (Avena fatua [12]): 30%
- Activity (Avena fatua [13]): 30%
- Activity (Avena fatua [14]): 33.3%
- Activity (Avena fatua [15]): 36.7%
- Activity (Avena fatua [16]): 38.3%
- EC50 (Avena fatua [17]): 670 µM

SMILES: C=C1C(=O)O[C@@H]2[C@H]1CC[C@H](C)C1=CCC(=O)[C@]12C [NEOAMBROSIN]
- inhibition of growth at 2000 µM (Avena fatua [1]): 84.8%
- inhibition of growth at 1000 µM (Avena fatua [2]): 43.8%
- inhibition of growth at 500 µM (Avena fatua [3]): 20.5%
- inhibition of growth at 250 µM (Avena fatua [4]): 10.7%
- inhibition of growth at 125 µM (Avena fatua [5]): 2.7%
- EC50 (Avena fatua [6]): 480 µM
- inhibition of growth at 2000 µM (Avena fatua [7]): 94.8%
- inhibition of growth at 1000 µM (Avena fatua [8]): 61.5%
- inhibition of growth at 500 µM (Avena fatua [9]): 45.6%
- inhibition of growth at 250 µM (Avena fatua [10]): 40.6%
- inhibition of growth at 125 µM (Avena fatua [11]): 11.5%
- Activity (Avena fatua [12]): 23.3%
- Activity (Avena fatua [13]): 40%
- Activity (Avena fatua [14]): 36.7%
- Activity (Avena fatua [15]): 40%
- Activity (Avena fatua [16]): 46.7%
- EC50 (Avena fatua [17]): 960 µM
